Values of other authors in publication PMC8583936, “Machine Learning Assisted Approach for Finding Novel High Activity Agonists of Human Ectopic Olfactory Receptors” (International Journal of Molecular Sciences, 2021).
Like-named read-outs stand apart in the source and are kept apart here.

What was measured:
[1] = molecular target: T1, OR2W1 (Homo sapiens, UniProt Q9Y3N9); conditions: cited from earlier work
T1 sequence (Q9Y3N9 1-320): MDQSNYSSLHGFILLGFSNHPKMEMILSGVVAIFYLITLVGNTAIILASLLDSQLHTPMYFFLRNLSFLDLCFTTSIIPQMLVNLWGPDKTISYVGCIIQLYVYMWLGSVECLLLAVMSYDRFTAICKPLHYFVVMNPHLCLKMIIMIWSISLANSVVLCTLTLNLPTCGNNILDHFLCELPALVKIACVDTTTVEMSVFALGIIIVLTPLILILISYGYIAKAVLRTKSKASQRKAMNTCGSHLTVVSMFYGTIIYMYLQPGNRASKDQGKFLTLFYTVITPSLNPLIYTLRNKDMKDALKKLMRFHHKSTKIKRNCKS

[2] = molecular target: T2, OR1A1 (Homo sapiens, UniProt Q9P1Q5); conditions: cited from earlier work
T2 sequence (Q9P1Q5 1-309): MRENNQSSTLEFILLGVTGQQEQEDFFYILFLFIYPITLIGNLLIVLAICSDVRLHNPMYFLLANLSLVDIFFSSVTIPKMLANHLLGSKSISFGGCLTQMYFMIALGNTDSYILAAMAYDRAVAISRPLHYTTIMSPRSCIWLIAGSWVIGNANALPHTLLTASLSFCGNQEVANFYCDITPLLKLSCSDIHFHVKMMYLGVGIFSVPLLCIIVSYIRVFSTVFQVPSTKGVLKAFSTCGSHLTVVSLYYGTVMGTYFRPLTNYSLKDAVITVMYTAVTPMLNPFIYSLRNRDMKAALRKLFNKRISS

[3] = Table S2, ref Supplement references [2]-[12] as printed after each odorant name
[4] = Table S1, ref Supplement references [1]-[9] as printed after each odorant name

SMILES | Class (agonist / non-agonist / antagonist / conflicting info.) for OR2W1 [1, 3] | Class (agonist / non-agonist / conflicting info.) for OR1A1 [2, 4] | Class (agonist / non-agonist / antagonist / conflicting info.) for OR2W1 [1] | Class (agonist / non-agonist / conflicting info.) for OR1A1 [2] | Class (agonist / non-agonist / conflicting info.) for OR1A1 ([2]; Table S1, ref Supplement references [1]-[9] as printed after each odorant name, listed as (R)-limonene)
CCC(C)C(=O)OC (centres unmarked) [Methyl 2-methylbutyrate] | Non-agonist | Non-agonist |  |  | 
COC(=O)c1ccccc1N [Methyl anthranilate] |  |  | Agonist | Non-agonist | 
COC(=O)c1ccccc1 [Methyl benzoate] |  |  | Non-agonist | Non-agonist | 
CCCC(=O)OC [Methyl butyrate] |  |  | Non-agonist | Non-agonist | 
COC(=O)C=Cc1ccccc1 [Methyl cinnamate] | Agonist | Non-agonist |  |  | 
CSSCc1ccco1 [Methyl furfuryl disulfide] | Non-agonist | Conflicting info. |  |  | 
COC(=O)C(C)C [Methyl isobutyrate] | Non-agonist | Non-agonist |  |  | 
CCCSSSC [Methyl propyl trisulfide] | Non-agonist | Non-agonist |  |  | 
COC(=O)c1ccccc1O [Methyl salicylate] | Agonist | Conflicting info. |  |  | 
C=CC(=C)CCC=C(C)C [Myrcene] | Non-agonist | Non-agonist |  |  | 
CCCCCOC(C)=O [N-amyl acetate] | Agonist | Non-agonist |  |  | 
O=C(O)CCCCCCCC(=O)O [Nonanedioic acid] | Non-agonist | Non-agonist |  |  | 
CCCCCCCCCS [Nonanethiol] | Agonist | Agonist |  |  | 
CCCCCCCCC(=O)O [Nonanoic acid] |  |  | Agonist | Conflicting info. | 
CCCCCCCCCO [Nonanol] | Agonist | Non-agonist |  |  | 
CCCCCCCC=O [Octanal] | Agonist | Conflicting info. |  |  | 
CCCCCCCCS [Octanethiol] |  |  | Agonist | Conflicting info. | 
CCCCCCCC(=O)O [Octanoic acid] |  |  | Conflicting info. | Non-agonist | 
CCCCCCCCO [Octanol] | Agonist | Conflicting info. |  |  | 

SMILES | Class (agonist / non-agonist / antagonist / conflicting info.) for OR2W1 [1, 3] | Class (agonist / non-agonist / conflicting info.) for OR1A1 [2, 4] | Class (agonist / non-agonist / antagonist / conflicting info.) for OR2W1 [1] | Class (agonist / non-agonist / conflicting info.) for OR1A1 [2] | Class (agonist / non-agonist / conflicting info.) for OR1A1 ([2]; Table S1, ref Supplement references [1]-[9] as printed after each odorant name, listed as (R)-limonene)
CCCCCCCCOC(=O)CCCCCCC [Octyl octanoate] | Antagonist | Conflicting info. |  |  | 
C=C(C)c1ccc(C)cc1 [P,α-Dimethylstyrene] | Agonist | Non-agonist |  |  | 
O=C(O)C=Cc1ccc(O)cc1 [P-Coumaric acid] | Non-agonist | Non-agonist |  |  | 
CCCCC=O [Pentanal] | Non-agonist | Non-agonist |  |  | 
CCCCCO [Pentanol] | Conflicting info. | Conflicting info. |  |  | 
O=CCc1ccccc1 [Phenyl acetaldehyde] | Non-agonist | Non-agonist |  |  | 
CC(=O)Oc1ccccc1 [Phenyl acetate] | Non-agonist | Non-agonist |  |  | 
CC(=O)OCC=C(C)C [Prenyl acetate] | Agonist | Non-agonist |  |  | 
CCC=O [Propanal] | Conflicting info. | Conflicting info. |  |  | 
CCC(=O)O [Propionic acid] |  |  | Non-agonist | Conflicting info. | 
CCCOC(=O)CCC [Propyl butyrate] |  |  | Non-agonist | Non-agonist | 
CCCSSCCC [Propyl disulfide] | Non-agonist | Non-agonist |  |  | 
c1ccc2ncccc2c1 [Quinoline] | Non-agonist | Agonist |  |  | 
C=C(C)[C@H]1CC=C(C)CC1 [R-limonene] | Agonist | Agonist |  |  | agonists
CC(C)=CC1CC(C)CCO1 (centres unmarked) [Rose oxide] | Non-agonist | Non-agonist |  |  | 
CC1=CCC(C(C)(C)O)CC1 (centres unmarked) [Terpineol] | Conflicting info. | Conflicting info. |  |  | 
CC(=O)OC(C)(C)C1CC=C(C)CC1 (centres unmarked) [Terpinyl acetate] | Conflicting info. | Conflicting info. |  |  | 
CCC(=O)OC(C)(C)C [Tert-Butyl propionate] | Non-agonist | Non-agonist |  |  | 
SCc1cccs1 [Thenyl mercaptan] | Non-agonist | Non-agonist |  |  | 
